US10570129B2 (Zoetis Services LLC, priority 2015, dated 2020)

What was measured:
D. immitis microfilariae = experiment: Dirofilaria immitis, microfilariae (DiMF) in vitro motility assay; type: cell-based; settings: for minimal effective concentration: Dirofilaria immitis, 72 h, read-out: DiMF minimally effective dose (MEC); for DiMF minimally effective dose (MEC): decrease in microfilariae motility by subjective visual assessment, observed at 72 hours
Haemonchus contortus L3 = experiment: microbe, parasite or virus in culture; type: cell-based; settings: for minimal effective concentration: Haemonchus contortus, 96 h, read-out: HcL3 Minimal Effective Concentration (MEC)
[1] = test system: Trichostrongylus colubriformis; experiment: Jird efficacy model; type: in vivo; settings: for inhibition in vivo at 10 mg/kg: Trichostrongylus colubriformis, sc, 96 h, read-out: Jird % (percentage efficacy)

Q: Which minimal effective concentration (D. immitis microfilariae) does the source give for N#Cc1ccc2c3c(n(C(=O)NCc4ccnc(Cl)c4)c2c1)CCN(C/C=C/c1cc(F)c(Cl)c(F)c1)C3 [Example 1, (E)-2-(3-(4-chloro-3,5-difluorophenyl)allyl)-N-((2-chloropyridin-4-yl)methyl)-7-cyano-1,2,3,4-tetrahydro-5H-pyrido[4,3-b]indole-5-carboxamide] here?
A: 0.2 µM

Q: What about the minimal effective concentration (Haemonchus contortus L3) of the same compound?
A: 0.2 µM

Q: What about the inhibition in vivo at 10 mg/kg [1] of the same compound?
A: 100%

Q: N#Cc1ccc2c3c(n(C(=O)NCc4ccnc(Cl)c4)c2c1)CCN(C/C=C/c1ccc(Cl)c(F)c1)C3 [Example 2, (E)-2-(3-(4-chloro-3-fluorophenyl)allyl)-N-((2-chloropyridin-4-yl)methyl)-7-cyano-1,2,3,4-tetrahydro-5H-pyrido[4,3-b]indole-5-carboxamide] was tested. Which minimal effective concentration (D. immitis microfilariae) did it give?
A: 4.8 µM

Q: What about the minimal effective concentration (Haemonchus contortus L3) of the same compound?
A: 1.6 µM

Q: What about the inhibition in vivo at 10 mg/kg [1] of the same compound?
A: 100%

Q: Which results are given for N#Cc1ccc2c3c(n(C(=O)NCc4ccnc(Cl)c4)c2c1)CCN(C/C=C/c1ccc(Cl)cc1Cl)C3 [Example 3, (E)-N-[(2-chloro-4-pyridyl)methyl]-7-cyano-2-[(E)-3-(2,4-dichlorophenyl)allyl]-3,4-dihydro-1H-pyrido[4,3-b]indole-5-carboxamide]?
A: DiMF minimally effective dose (MEC) (D. immitis microfilariae): 18.2 µM; HcL3 Minimal Effective Concentration (MEC) (Haemonchus contortus L3): 1.0 µM; Jird % (percentage efficacy) ([1]; Mongolian gerbil (jird) infected with T. colubriformis, 10 mg/kg subcutaneous, worm count approximately four days after dosing): 99%

Q: For N#Cc1ccc2c3c(n(C(=O)NCc4ccnc(Cl)c4)c2c1)CCN(C/C=C/c1c(F)cc(Cl)cc1F)C3 [Example 6, (E)-2-(3-(4-chloro-2,6-difluorophenyl)allyl)-N-((2-chloropyridin-4-yl)methyl)-7-cyano-1,2,3,4-tetrahydro-5H-pyrido[4,3-b]indole-5-carboxamide], which minimal effective concentration (D. immitis microfilariae) is on record?
A: 18.2 µM

Q: And the minimal effective concentration (Haemonchus contortus L3)?
A: 2.4 µM

Q: And the inhibition in vivo at 10 mg/kg [1]?
A: 99%

Q: With N#Cc1ccc2c3c(n(C(=O)NCc4ccnc(Cl)c4)c2c1)CCN(C/C=C/c1ccc(Cl)cc1F)C3 [Example 7, (E)-2-(3-(4-chloro-2-fluorophenyl)allyl)-N-((2-chloropyridin-4-yl)methyl)-7-cyano-1,2,3,4-tetrahydro-5H-pyrido[4,3-b]indole-5-carboxamide] as the compound, how does the minimal effective concentration (D. immitis microfilariae) read?
A: 10 µM

Q: What about the minimal effective concentration (Haemonchus contortus L3) of the same compound?
A: 2.4 µM

Q: And the inhibition in vivo at 10 mg/kg [1]?
A: 100%

Q: How did the minimal effective concentration (D. immitis microfilariae) turn out when N#Cc1ccc2c3c(n(C(=O)NCc4ccnc(Cl)c4)c2c1)CCN(C/C=C/c1c(F)cc(F)cc1F)C3 [Example 9, (E)-N-((2-chloropyridin-4-yl)methyl)-7-cyano-2-(3-(2,4,6-trifluorophenyl)allyl)-1,2,3,4-tetrahydro-5H-pyrido[4,3-b]indole-5-carboxamide] was run?
A: 5.7 µM

Q: And the minimal effective concentration (Haemonchus contortus L3)?
A: 7.6 µM

Q: And the inhibition in vivo at 10 mg/kg [1]?
A: 99%

Q: How did the minimal effective concentration (D. immitis microfilariae) turn out when N#Cc1ccc2c3c(n(C(=O)NCc4ccnc(Cl)c4)c2c1)CCN(C/C=C/c1ccc(F)c(F)c1F)C3 [Example 13, (E)-N-((2-chloropyridin-4-yl)methyl)-7-cyano-2-(3-(2,3,4-trifluorophenyl)allyl)-1,2,3,4-tetrahydro-5H-pyrido[4,3-b]indole-5-carboxamide] was run?
A: 10 µM

Q: What about the minimal effective concentration (Haemonchus contortus L3) of the same compound?
A: 1.8 µM

Q: And the inhibition in vivo at 10 mg/kg [1]?
A: 100%

Q: With N#Cc1ccc2c3c(n(C(=O)NCc4ccnc(Cl)c4)c2c1)CCN(C/C=C/c1cc(F)c(F)c(F)c1)C3 [Example 29, (E)-N-((2-chloropyridin-4-yl)methyl)-7-cyano-2-(3-(3,4,5-trifluorophenyl)allyl)-1,2,3,4-tetrahydro-5H-pyrido[4,3-b]indole-5-carboxamide] as the compound, how does the minimal effective concentration (D. immitis microfilariae) read?
A: 1.8 µM

Q: And the minimal effective concentration (Haemonchus contortus L3)?
A: 0.7 µM

Q: What about the inhibition in vivo at 10 mg/kg [1] of the same compound?
A: 99%

Q: How did the minimal effective concentration (D. immitis microfilariae) turn out when N#Cc1ccc2c3c(n(C(=O)NCc4ccnc(Cl)c4)c2c1)CCN(C/C=C/c1cc(F)cc(F)c1)C3 [Example 30, (E)-N-((2-chloropyridin-4-yl)methyl)-7-cyano-2-(3-(3,5-difluorophenyl)allyl)-1,2,3,4-tetrahydro-5H-pyrido[4,3-b]indole-5-carboxamide] was run?
A: 10 µM

Q: What about the minimal effective concentration (Haemonchus contortus L3) of the same compound?
A: 0.5 µM

Q: And the inhibition in vivo at 10 mg/kg [1]?
A: 100%

Q: What does the source list for N#Cc1ccc2c3c(n(C(=O)NCc4ccnc(Cl)c4)c2c1)CCN(C/C=C/c1cccc(F)c1F)C3 [Example 32, (E)-N-((2-chloropyridin-4-yl)methyl)-7-cyano-2-(3-(2,3-difluorophenyl)allyl)-1,2,3,4-tetrahydro-5H-pyrido[4,3-b]indole-5-carboxamide]?
A: minimal effective concentration (D. immitis microfilariae): 18.2 µM; minimal effective concentration (Haemonchus contortus L3): 1.8 µM; inhibition in vivo at 10 mg/kg [1]: 100%

Q: N#Cc1ccc2c3c(n(C(=O)NCc4ccnc(Cl)c4)c2c1)CCN(C/C=C/c1ccc(Cl)c(Cl)c1)C3 [Example 35, (E)-N-((2-chloropyridin-4-yl)methyl)-7-cyano-2-(3-(3,4-dichlorophenyl)allyl)-1,2,3,4-tetrahydro-5H-pyrido[4,3-b]indole-5-carboxamide] was tested. Which minimal effective concentration (D. immitis microfilariae) did it give?
A: 33 µM

Q: What about the minimal effective concentration (Haemonchus contortus L3) of the same compound?
A: 3.3 µM

Q: What about the inhibition in vivo at 10 mg/kg [1] of the same compound?
A: 100%

Q: For N#Cc1ccc2c3c(n(C(=O)NCc4ccnc(Cl)c4)c2c1)CCN(C/C=C/c1ccc(F)cc1)C3 [Example 36, (E)-N-((2-chloropyridin-4-yl)methyl)-7-cyano-2-(3-(4-fluorophenyl)allyl)-1,2,3,4-tetrahydro-5H-pyrido[4,3-b]indole-5-carboxamide], which minimal effective concentration (D. immitis microfilariae) is on record?
A: 3.3 µM

Q: And the minimal effective concentration (Haemonchus contortus L3)?
A: 5.7 µM

Q: What about the inhibition in vivo at 10 mg/kg [1] of the same compound?
A: 100%

Q: With N#Cc1ccc2c3c(n(C(=O)NCc4ccnc(Br)c4)c2c1)CCN(C/C=C/c1ccc(Cl)c(F)c1)C3 [Example 41, (E)-N-((2-bromopyridin-4-yl)methyl)-2-(3-(4-chloro-3-fluorophenyl)allyl)-7-cyano-1,2,3,4-tetrahydro-5H-pyrido[4,3-b]indole-5-carboxamide] as the compound, how does the minimal effective concentration (D. immitis microfilariae) read?
A: 5.7 µM

Q: And the minimal effective concentration (Haemonchus contortus L3)?
A: 0.3 µM

Q: And the inhibition in vivo at 10 mg/kg [1]?
A: 100%

Q: N#Cc1ccc2c(c1)c1c(n2C(=O)NCc2ccnc(Cl)c2)CCN(C/C=C/c2ccc(F)cc2F)C1 [Example 88, (E)-N-((2-chloropyridin-4-yl)methyl)-8-cyano-2-(3-(2,4-difluorophenyl)allyl)-1,2,3,4-tetrahydro-5H-pyrido[4,3-b]indole-5-carboxamide] was tested. Which minimal effective concentration (D. immitis microfilariae) did it give?
A: 3.3 µM

Q: And the minimal effective concentration (Haemonchus contortus L3)?
A: 0.1 µM

Q: What about the inhibition in vivo at 10 mg/kg [1] of the same compound?
A: 99%

Q: How did the minimal effective concentration (D. immitis microfilariae) turn out when N#Cc1ccc2c(c1)c1c(n2C(=O)NCc2ccnc(F)c2)CCN(C/C=C/c2cc(F)c(Cl)c(F)c2)C1 [Example 99, (E)-2-(3-(4-chloro-3,5-difluorophenyl)allyl)-8-cyano-N-((2-fluoropyridin-4-yl)methyl)-1,2,3,4-tetrahydro-5H-pyrido[4,3-b]indole-5-carboxamide] was run?
A: 10 µM

Q: What about the minimal effective concentration (Haemonchus contortus L3) of the same compound?
A: 0.1 µM

Q: And the inhibition in vivo at 10 mg/kg [1]?
A: 100%

Q: With N#Cc1ccc2c(c1)c1c(n2C(=O)NCc2ccnc(F)c2)CCN(C/C=C/c2ccc(Br)cc2F)C1 [Example 102, (E)-2-(3-(4-bromo-2-fluorophenyl)allyl)-8-cyano-N-((2-fluoropyridin-4-yl)methyl)-1,2,3,4-tetrahydro-5H-pyrido[4,3-b]indole-5-carboxamide] as the compound, how does the minimal effective concentration (D. immitis microfilariae) read?
A: 3.3 µM

Q: And the minimal effective concentration (Haemonchus contortus L3)?
A: 0.3 µM

Q: What about the inhibition in vivo at 10 mg/kg [1] of the same compound?
A: 97%

Q: Which minimal effective concentration (D. immitis microfilariae) does the source give for N#Cc1ccc2c(c1)c1c(n2C(=O)NCc2ccnc(F)c2)CCN(C/C=C/c2cc(Br)ccc2F)C1 [Example 108, (E)-2-(3-(5-bromo-2-fluorophenyl)allyl)-8-cyano-N-((2-fluoropyridin-4-yl)methyl)-1,2,3,4-tetrahydro-5H-pyrido[4,3-b]indole-5-carboxamide] here?
A: 3.2 µM

Q: What about the minimal effective concentration (Haemonchus contortus L3) of the same compound?
A: 2.4 µM

Q: And the inhibition in vivo at 10 mg/kg [1]?
A: 100%

Q: N#Cc1ccc2c(c1)c1c(n2C(=O)NCc2ccnc(F)c2)CCN(C/C=C/c2ccc(F)c(Br)c2)C1 [Example 109, (E)-2-(3-(3-bromo-4-fluorophenyl)allyl)-8-cyano-N-((2-fluoropyridin-4-yl)methyl)-1,2,3,4-tetrahydro-5H-pyrido[4,3-b]indole-5-carboxamide] was tested. Which minimal effective concentration (D. immitis microfilariae) did it give?
A: 18.2 µM

Q: What about the minimal effective concentration (Haemonchus contortus L3) of the same compound?
A: 1.22 µM

Q: What about the inhibition in vivo at 10 mg/kg [1] of the same compound?
A: 99%

Q: What does the source list for N#Cc1ccc2c(c1)c1c(n2C(=O)NCc2ccnc(F)c2)CCN(C/C=C/c2ccc(F)cc2F)C1 [Example 115, (E)-8-cyano-2-(3-(2,4-difluorophenyl)allyl)-N-((2-fluoropyridin-4-yl)methyl)-1,2,3,4-tetrahydro-5H-pyrido[4,3-b]indole-5-carboxamide]?
A: minimal effective concentration (D. immitis microfilariae): 3.3 µM; minimal effective concentration (Haemonchus contortus L3): 0.1 µM; inhibition in vivo at 10 mg/kg [1]: 100%

Q: Which minimal effective concentration (D. immitis microfilariae) does the source give for N#Cc1ccc2c(c1)c1c(n2C(=O)NCc2ccnc(F)c2)CCN(C/C=C/c2ccc(Cl)c(Cl)c2)C1 [Example 122, (E)-8-cyano-2-(3-(3,4-dichlorophenyl)allyl)-N-((2-fluoropyridin-4-yl)methyl)-1,2,3,4-tetrahydro-5H-pyrido[4,3-b]indole-5-carboxamide] here?
A: 18.2 µM

Q: What about the minimal effective concentration (Haemonchus contortus L3) of the same compound?
A: 1 µM

Q: What about the inhibition in vivo at 10 mg/kg [1] of the same compound?
A: 100%

Q: What does the source list for N#Cc1ccc2c(c1)c1c(n2C(=O)NCc2ccnc(F)c2)CCN(C/C=C/c2ccc(F)cc2)C1 [Example 123, (E)-8-cyano-2-(3-(4-fluorophenyl)allyl)-N-((2-fluoropyridin-4-yl)methyl)-1,2,3,4-tetrahydro-5H-pyrido[4,3-b]indole-5-carboxamide]?
A: minimal effective concentration (D. immitis microfilariae): 10 µM; minimal effective concentration (Haemonchus contortus L3): 0.3 µM; inhibition in vivo at 10 mg/kg [1]: 100%

Q: With N#Cc1ccc2c(c1)c1c(n2C(=O)NCc2ccnc(C(F)(F)F)c2)CCN(C/C=C/c2ccc(Cl)cc2F)C1 [Example 128, (E)-2-(3-(4-chloro-2-fluorophenyl)allyl)-8-cyano-N-((2-(trifluoromethyl)pyridin-4-yl)methyl)-1,2,3,4-tetrahydro-5H-pyrido[4,3-b]indole-5-carboxamide] as the compound, how does the minimal effective concentration (D. immitis microfilariae) read?
A: 0.7 µM

Q: And the minimal effective concentration (Haemonchus contortus L3)?
A: 0.1 µM

Q: And the inhibition in vivo at 10 mg/kg [1]?
A: 100%

Q: For “N-((2-chloropyridin-4-yl)methyl)-2-((6-fluoronaphthalen-2-yl)methyl)-7-(trifluoromethoxy)-1,2,3,4-tetrahydro-5H-pyrido[4,3-b]indole-5-carboxamide [Example 366]”, which “DiMF minimally effective dose (MEC)” value (D. immitis microfilariae) is on record?
A: 2.4 µM

Q: And the “HcL3 Minimal Effective Concentration (MEC)” value (Haemonchus contortus L3)?
A: >100 µM
